# Test results from patent US7432264B2, “Antimicrobial biaryl compounds” (Isis Pharmaceuticals, Inc., priority 2000, dated 2008).
# pKd: −log10 of the molar value.
# Tests used:
# [1] = system: E. faecalis ATCC 29212; assay: MIC, Enterococcus faecalis; format: cell-based
# Protocol: (§1) Bacterial Strains. The Streptococcus pyogenes strains, Klebsiella pneumoniae, Escherichia coli, Staphylococcus aureus, Enterococcus faecalis used in the antibacterial activity studies ATCC 14289, 49399, 13883, 25922, 13709, 29212, respectively, are obtained from the American Type Culture Collection, Rockville, Md. The strain E. coli imp— is a mutant strain of wild type E. coli with increased outer membrane permeability and was grown in LB broth at 37 °C. S. pyogenes strain is grown in Todd-Hewitt broth. S. aureus is grown in trypticase soy broth, E. faecalis in Todd-Hewitt broth, wild type E. coli and K. pneumoniae, in nutrient broth.
# (§2) Determination of Minimum Inhibitory Concentrations (MICs). The assays were carried out in […] volume in duplicate in 96-well clear flat-bottom plates. The bacterial suspension from an overnight culture growth in appropriate medium was added to a solution of test compound in 4% DMSO in water. Final bacterial inoculum was approximately 10^5-10^6 CFU/well. The percent growth of the bacteria in test wells relative to that observed for a well containing no compound was determined by measuring absorbance at 595 nm (A595) after 24 h. […] Both ampicillin and tetracycline is used as antibiotic-positive controls in each screening assay for S. pyogenes, E. coli imp-, E. coli, S. aureus, E. faecalis, K pneumoniae and P. vulgaris. […]
# [2] = system: eukaryotic protein synthesis; assay: Eukaryotic protein synthesis, cell-free assay; format: biochemical; details: at 200:M
# Description: The biphenyl substitution improves in vitro antibacterial […] 4-fold compared to the phenyl substitution (34 versus 26). […] Biaryl 34 was selected to be evaluated against some additional bacterial strains. […] See Kung, P.-P.; Casper, M. D.; Cook, K. L.; Wilson-Lingardo, L.; Risen, L. M.; Vickers, T. A.; Ranken, R.; Blyn, L. B.; Wyatt, J. R.; Cook, P. D.; Ecker, D. J. J. Med. Chem. 1999, 42, 4705-4713.
# [3] = system: E. coli ATCC 25922; assay: Minimum inhibitory concentration (MIC), E. coli; format: cell-based, Escherichia coli
# Protocol: as §1
# (§3) Determination of Minimum Inhibitory Concentrations (MICs). The assays were carried out in […] volume in duplicate in 96-well clear flat-bottom plates. The bacterial suspension from an overnight culture growth in appropriate medium was added to a solution of test compound in 4% DMSO in water. Final bacterial inoculum was approximately 10^5-10^6 CFU/well. The percent growth of the bacteria in test wells relative to that observed for a well containing no compound was determined by measuring absorbance at 595 nm (A595) after 24 h. […] Both ampicillin and tetracycline is used as antibiotic-positive controls in each screening assay for S. pyogenes, E. coli imp-, E. coli, S. aureus, E. faecalis, K pneumoniae and P. vulgaris. Ciprofloxacin is used as an antibiotic positive control in each screening assay for P. aeruginosa.
# [4] = system: K pneumoniae ATCC 13383; assay: MIC, Klebsiella pneumoniae; format: cell-based
# Protocol: as §1, §2
# [5] = system: E. coli S30 bacterial extract (protein synthesis); format: biochemical; details: 34 versus 26
# Protocol: Coupled Bacterial Transcription/Translation Assay. The DNA template, pBestLuc™ (Promega), is a plasmid containing a reporter gene for firefly luciferase fused to a strong tac promoter and ribosome binding site. Messenger RNA from 1 μg pBestLuc was transcribed and translated in E. coli S30 bacterial extract in the presence or absence of test compound. Compounds were tested in a black 96 well microtiter plate with an assay volume of 35 μL. Each test well contained: 5 μL test compound, 13 μL S30 premix (Promega), 4 μL 10× complete amino acid mix (1 mM each), 5 μL E. coli S30 extract and 8 μL of […] pBestLuc™. The transcription/translation reaction was incubated for 35 minutes at 37° C. followed by detection of functional luciferase with the addition of 30 μL LucLite™ (Packard). Light output was quantitated on a Packard TopCount.
# [6] = system: S. pyogenes ATCC 49399; assay: MIC, Streptococcus pyogenes; format: cell-based
# Protocol: as §1, §2
# [7] = system: methicillin resistant S. aureus ATCC43300; assay: MIC, methicillin-resistant S. aureus; format: cell-based, Staphylococcus aureus
# Protocol: as §3
# [8] = system: S. aureus ATCC 13709; assay: Minimum inhibitory concentration (MIC), S. aureus; format: cell-based, Staphylococcus aureus
# Protocol: as §1, §3
# [9] = system: P. vulgaris ATCC 8427; assay: MIC, Proteus vulgaris; format: cell-based
# Protocol: as §3
# [10] = molecular target: A1061 23S rRNA MS screening construct; assay: Mass-spec binding assay (SAR by MS, ESI-FTICR-MS); design: species or system E. coli
# Protocol: Binding affinity of test compounds to a 58 nucleotide fragment of E. coli 23S ribosomal RNA (23S rRNA) was determined using electrospray ionization Fourier transform ion cyclotron resonance mass spectrometry (ESI-FTICR-MS). The structure of the 23S rRNA fragment and its preparation is described by Conn et al (Science, 1999, 284(5417):1171) and Hinck et al (J. Mol. Biol., 1997, 274(1):101) both incorporated herein by reference. The mass spec assay determined the exact chemical composition of ligands that bound to the target rRNA and determined relative or absolute dissociation (KD) of ligands for the target. In the first step of the assay, a mixture of 23S rRNA target and test compound were moved from solution into the gas phase by electrospray ionization. The FT-ICR mass spectrometer served as a parallel set of “scales”, simultaneously measuring the exact molecular masses of the small molecules that bound to the RNA with great accuracy. The mass measurement error for an RNA-ligand complex weighing 10 kDa equals the mass of an electron. At this level of mass accuracy, each compound in the mixture was “labeled” by its molecular formula and exact molecular mass. […]
SMILES,MIC Enterococcus faecalis [1],inhibition of eukaryotic protein synthesis [2],MIC E. coli ([3]; E. coli ATCC 25922),"MIC ([3]; Escherichia coli, ATCC25922, 24 h, read-out: MIC (E. coli))",MIC Klebsiella pneumoniae [4],fold improvement compared to the phenyl substitution (26) [5],MIC Streptococcus pyogenes [6],MIC methicillin-resistant S. aureus strain [7],MIC S. aureus ([8]; S. aureus ATCC 13709),"MIC ([8]; Staphylococcus aureus, ATCC13709, 24 h, read-out: MIC (S. aureus))",MIC Proteus vulgaris [9],pKd [10]
CN(C)CCCOc1ccc(C(NC(=O)c2ccc(-c3cccc(NC(=O)c4ccc(-c5ccccc5)cc4)c3)o2)C(=O)N2CCNCC2)cc1 (stereo not drawn) [Compound 34],3-6 :M,not to inhibit,6-13 :M,6 to 13 mM,13-25 :M,4 fold,3-6 :M,13-25 :M,3-6 :M,6 to 13 mM,50-100 :M,
NCC[C@@H](NC(=O)c1ccco1)C(=O)N1CCNCC1,,,,,,,,,,,,4.30
